# Where two headings read alike, the source gives them in different places. Starred links: 1 amine or outer side, 2 acyl side, 3 side chain; linkers in the order of their positions; H or OH if unused. Positions of bridges follow the written chain, without caps; N, C: chain ends. Non-standard residues stand in square brackets, D forms with d. Residues, ends and D or L forms follow the SMILES beside them. *: point of attachment. Orn(4R-OH,5R-OCH2CH2NMe3+) = C[N+](C)(C)CCO[C@@H](N[*:3])[C@H](O)C[C@H](N[*:1])C(=O)[*:2]; pTerphenylCO(4''-OnC5H11) = CCCCCOc1ccc(-c2ccc(-c3ccc(C(=O)*)cc3)cc2)cc1; hTyr(3S-OH,4S-OH) = N[C@H](C(=O)O)[C@H](O)[C@@H](O)c1ccc(O)cc1; Pro(3S-OH,4S-Me) = C[C@H]1CN[C@H](C(=O)O)[C@H]1O; Hyp = O=C(O)[C@@H]1C[C@@H](O)CN1
# Columns and labels:
# C. krusei ATCC 6258 = experiment: microbe, parasite or virus in culture; type: cell-based, Candida krusei; settings: Pichia kudriavzevii
# [1] = system: C. albicans vaginal isolates; experiment: Susceptibility testing of VVC clinical isolates at pH 7 and 4 (CLSI M27-A3); type: cell-based, Candida albicans; settings: for Number of isolates at MIC 0.06 μg/mL / Number of isolates at MIC 0.125 μg/mL / Number of isolates at MIC 0.25 μg/mL / Number of isolates at MIC 0.5 μg/mL / Number of isolates at MIC 0.03 μg/mL / Number of isolates at MIC […] / Number of isolates at MIC 1 μg/mL: 60 VVC isolates; for MIC90 / MIC: Candida albicans
# Candida parapsilosis = experiment: Broth microdilution of invasive fungal isolates (CLSI M27-A3/M38-A2); type: cell-based; settings: 92 isolates
# [2] = system: C. glabrata ATCC 90030, ATCC 2001; experiment: Broth microdilution MIC (CLSI), Examples 3 and 4; settings: Nakaseomyces glabratus
# Method: Antifungal susceptibility testing. Candida strains were cultured aerobically at 35° C. on SDA plates or in RPMI 1640 broth (pH 7.0). […] MIC assays were performed in triplicate.
compound,measurement,setting,value
"CCCCCOc1ccc(-c2ccc(-c3ccc(C(=O)N[C@H]4C[C@@H](O)[C@@H](OCC[N+](C)(C)C)NC(=O)[C@@H]5[C@@H](O)[C@@H](C)CN5C(=O)[C@H]([C@@H](C)O)NC(=O)[C@H]([C@H](O)[C@@H](O)c5ccc(O)cc5)NC(=O)[C@@H]5C[C@@H](O)CN5C(=O)[C@H]([C@@H](C)O)NC4=O)cc3)cc2)cc1 [Compound 1] ({pTerphenylCO(4''-OnC5H11)}-[Orn(4R-OH,5R-OCH2CH2NMe3+)]T[Hyp][hTyr(3S-OH,4S-OH)]T[Pro(3S-OH,4S-Me)]; lactam 1-C)",MIC,C. krusei ATCC 6258; ATCC6258,0.125 µg/mL
same,MIC,"C. krusei ATCC 6258; ATCC6258, read-out: MIC P20",0.125 µg/mL
same,Number of isolates at MIC 0.06 μg/mL,"[1]; 24 h, pH 4",1
same,Number of isolates at MIC 0.125 μg/mL,"[1]; 24 h, pH 4",33
same,Number of isolates at MIC 0.25 μg/mL,"[1]; 24 h, pH 4",23
same,Number of isolates at MIC 0.5 μg/mL,"[1]; 24 h, pH 4",3
same,Number of isolates at MIC 0.03 μg/mL,"[1]; 24 h, pH 7",43
same,Number of isolates at MIC 0.06 μg/mL,"[1]; 24 h, pH 7",10
same,Number of isolates at MIC 0.125 μg/mL,"[1]; 24 h, pH 7",2
same,Number of isolates at MIC […],"[1]; 24 h, pH 7",5
same,Number of isolates at MIC 0.125 μg/mL,"[1]; 48 h, pH 4",6
same,Number of isolates at MIC 0.25 μg/mL,"[1]; 48 h, pH 4",16
same,Number of isolates at MIC 0.5 μg/mL,"[1]; 48 h, pH 4",34
same,Number of isolates at MIC 1 μg/mL,"[1]; 48 h, pH 4",4
same,Number of isolates at MIC 0.03 μg/mL,"[1]; 48 h, pH 7",29
same,Number of isolates at MIC 0.06 μg/mL,"[1]; 48 h, pH 7",16
same,Number of isolates at MIC 0.125 μg/mL,"[1]; 48 h, pH 7",9
same,Number of isolates at MIC 0.25 μg/mL,"[1]; 48 h, pH 7",1
same,Number of isolates at MIC 0.5 μg/mL,"[1]; 48 h, pH 7",1
same,Number of isolates at MIC 1 μg/mL,"[1]; 48 h, pH 7",2
same,Number of isolates at MIC […],"[1]; 48 h, pH 7",2
same,MIC90,"[1]; 48 h, pH 4",0.5 µg/mL
same,MIC,"[1]; 48 h, pH 4, fluconazole-resistant isolate 1, pH 4, 48 h, read-out: MIC",0.5 µg/mL
same,MIC,"[1]; 48 h, pH 4, fluconazole-resistant isolate 2, pH 4",0.125 µg/mL
same,MIC,"[1]; 48 h, pH 4, fluconazole-resistant isolate 3, pH 4, 48 h, read-out: MIC",0.5 µg/mL
same,MIC,"[1]; 48 h, pH 4, fluconazole-resistant isolate 4, pH 4, 48 h, read-out: MIC",0.25 µg/mL
same,MIC,"[1]; 48 h, pH 4, fluconazole-resistant isolate 6, pH 4, 48 h, read-out: MIC",0.5 µg/mL
same,MIC,"[1]; 48 h, pH 4, fluconazole-resistant isolate 7, pH 4, 48 h, read-out: MIC",0.5 µg/mL
same,MIC,"[1]; 48 h, pH 4, fluconazole-resistant isolate 9, pH 4, 48 h, read-out: MIC",1 µg/mL
same,MIC90,"[1]; 48 h, pH 7",0.125 µg/mL
same,MIC,"[1]; 48 h, pH 7, fluconazole-resistant isolate 1, pH 7, 48 h, read-out: MIC",0.03 µg/mL
same,MIC,"[1]; 48 h, pH 7, fluconazole-resistant isolate 2, pH 7",0.25 µg/mL
same,MIC,"[1]; 48 h, pH 7, fluconazole-resistant isolate 3, pH 7, 48 h, read-out: MIC",0.03 µg/mL
same,MIC,"[1]; 48 h, pH 7, fluconazole-resistant isolate 4, pH 7, 48 h, read-out: MIC",0.06 µg/mL
same,MIC,"[1]; 48 h, pH 7, fluconazole-resistant isolate 5, pH 7",0.125 µg/mL
same,MIC,"[1]; 48 h, pH 7, fluconazole-resistant isolate 6, pH 7, 48 h, read-out: MIC",0.03 µg/mL
same,MIC,"[1]; 48 h, pH 7, fluconazole-resistant isolate 7, pH 7, 48 h, read-out: MIC",0.03 µg/mL
same,MIC,"[1]; 48 h, pH 7, fluconazole-resistant isolate 8, pH 7",0.125 µg/mL
same,MIC,"[1]; 48 h, pH 7, fluconazole-resistant isolate 9, pH 7, 48 h, read-out: MIC",1 µg/mL
same,MIC,"[1]; 48 h, pH 7, fluconazole-resistant isolate 10, pH 7",0.125 µg/mL
same,MIC90,"[1]; 60 isolates, pH 4, 24 h, read-out: MIC90",0.25 µg/mL
same,MIC90,"[1]; 60 isolates, pH 7, 24 h, read-out: MIC90",0.06 µg/mL
same,Cumulative % of isolates inhibited at MIC 0.5 μg/mL,Candida parapsilosis,(23.9) %
same,Cumulative % of isolates inhibited at MIC 1 μg/mL,Candida parapsilosis,(62.0) %
same,Cumulative % of isolates inhibited at MIC 2 μg/mL,Candida parapsilosis,(98.9) %
same,Cumulative % of isolates inhibited at MIC 4 μg/mL,Candida parapsilosis,(100.0) %
same,Number of isolates inhibited at MIC 0.5 μg/mL,Candida parapsilosis,22
same,Number of isolates inhibited at MIC 1 μg/mL,Candida parapsilosis,35
same,Number of isolates inhibited at MIC 2 μg/mL,Candida parapsilosis,34
same,Number of isolates inhibited at MIC 4 μg/mL,Candida parapsilosis,1
same,MIC50,"Candida parapsilosis; Lodderomyces parapsilosis, read-out: MIC50",1 µg/mL
same,MIC90,"Candida parapsilosis; Lodderomyces parapsilosis, read-out: MIC90",2 µg/mL
same,MIC,"[2]; ATCC2001|ATCC90030, 24 h, read-out: Broth MIC, ATCC 2001 wild-type, 24 h, ~50% inhibition",0.125 µg/mL
same,MIC,"[2]; ATCC2001|ATCC90030, 24 h, read-out: Broth MIC, ATCC 90030 wild-type, 24 h, ~50% inhibition",0.06 µg/mL
same,MIC,"[2]; ATCC2001|ATCC90030, ATCC 2001 spontaneous mutant, Fks2 HS1 D666N",0.5 µg/mL
same,MIC,"[2]; ATCC2001|ATCC90030, ATCC 2001 spontaneous mutant, Fks2 HS1 D666Y",0.5 µg/mL
same,MIC,"[2]; ATCC2001|ATCC90030, ATCC 2001 spontaneous mutant, Fks2 HS1 R665G",0.5 µg/mL
same,MIC,"[2]; ATCC2001|ATCC90030, ATCC 2001 spontaneous mutant, Fks2 HS1 S663F",1 µg/mL
same,MIC,"[2]; ATCC2001|ATCC90030, ATCC 2001 spontaneous mutant, Fks2 HS1 ΔF659",2 µg/mL
same,MIC,"[2]; ATCC2001|ATCC90030, ATCC 2001 spontaneous mutant, Fks2 HS2 R1378S",0.25 µg/mL
same,MIC,"[2]; ATCC2001|ATCC90030, ATCC 90030 spontaneous mutant, Fks2 HS1 D666H",0.25 µg/mL
same,MIC,"[2]; ATCC2001|ATCC90030, ATCC 90030 spontaneous mutant, Fks2 HS1 ΔF659",2 µg/mL

# From US20180256673A1, “METHODS FOR TREATING FUNGAL INFECTIONS” (priority 2015, published 2018)
